System: TGF-b induced Endothelin-1 (ET-1) production
Assay: ET-1 assay: inhibitory effect on TGF-b induced endothelin-1 production
Assay type: cell-based
Details: Homo sapiens, Fibroblast; fibroblasts, stimulant (TGFb, serum, LPA etc), ET-1 by ELISA
Description: Assay of Inhibitory Effect on TGF-b induced Endothelin-1 Production
Fibroblasts (primary human lung and dermal, HFL-1, 3T3 etc) are seeded in 96-well plates at ˜15000 cells/well and serum starved for 0-48 hours. After media exchange, compounds serially diluted in DMSO are added to the cells. After a brief incubation of ˜30 min, stimulants (TGFb, serum, LPA etc) are added followed by further incubation for 16-48 hours. Media is then harvested and stored frozen in plate format for later endothelin-1 (ET-1) determination by ELISA. Toxicity measurements are made using the ATPlite kit (Perkin-Elmer). ET-1 is quantified using an ELISA kit (R&D Systems). The amount of ET-1 produced in the assay wells are back-calculated using the ELISA standard. The ability of a compound to inhibit ET-1 production is typically analyzed by fitting dose-response curves to a 4-parameter logistic function to obtain an EC50 value. A measure of cytotoxicity (CC50) is likewise reported from the same experiment using the ATPlite data.

| SMILES | EC50 [µM] |
| --- | --- |
| O=C(Nc1cc(=O)n(-c2ccc(OC(F)(F)F)cc2)cc1-c1ccc(F)cc1)Oc1ccccc1 [Compound 113] | > 200 |
| Cc1cc(-c2cnn(C)c2)cn(-c2ccc(OC(F)(F)F)cc2)c1=O [Compound 352] | 50 to 200 |
| O=c1ccc(-c2ccnnc2)cn1-c1ccc(OC(F)(F)F)cc1 [Compound 347] | 50 to 200 |

— patent US9675593B2, “Anti-fibrotic pyridinones” (InterMune, Inc., priority 2012, dated 2017)
